Results on 3 compounds are retold here after patent US11427808B2, “Method for serum-free culture of chondrocytes and serum-free culture medium” (Regenesis Science Co., Ltd., priority 2014, dated 2022).

The test system of this experiment is primary human chondrocytes. Description: serum-free culture of human chondrocytes, cell proliferation. Type of experiment: cell-based. As to conditions: for proliferation of cultured chondrocytes (number of cells): 4th, 7th, 14th and 21st day. As for the experimental part:
Primary human chondrocytes were isolated from a fresh sample of articular cartilage, and the sample was fractionated. The obtained fractionated sample was then immersed in a 0.1% to 0.3% collagenase solution, and subjected to enzymatic digestion at 37° C. for 4 to 5 hours. The obtained cells were collected by centrifugation for 5 minutes at 1,200 rpm. A mixture obtained by adding 100 ng/mL FGF, 0.5 μM SAG, 400 ng/mL HC, 5 ng/mL IGF, and 5 μg/mL insulin to DMEM medium was used as a culture medium. The cultured cells previously obtained were seeded at a density of 1000 cells/cm^2 and cultured in an environment of 37° C. and 5% CO2. A mixture obtained by adding 100 ng/mL FGF2, 0.5 μM SAG, 400 ng/mL HC, 5 ng/mL IGF and 5 μg/mL insulin to DMEM medium was used as a culture medium for subculture. The cultured cells in Example 1 were seeded at a density of 10000 cells/cm^2 and cultured in an environment of 37° C. and 5% CO2. In order to examine the optimum concentration of SAG added to a culture medium, the concentration of SAG in a serum-free culture medium was changed to 0.05 uM, 0.01 uM or 0.5 uM, and an influence on proliferation of cultured chondrocytes was examined. Specifically, chondrocytes prepared in the same procedure as in Example 1 were seeded at a density of 10000 cells/well, and the number of cells on the 4th, 7th, 14th and 21st day after seeding was measured. Because SAG is a very expensive reagent, it is preferred that SAG be able to be used at as low concentration as possible. […] Specifically, the concentration of SAG in a serum-free culture medium to which ITS had been added was changed to 0.01 uM, 0.05 uM, 0.1 uM or 0.5 uM, and the cultured chondrocytes were cultured, and the number of cells on the 4th, 7th, 14th and 21st day after seeding was measured. In order to further examine the effect of ITS and SAG on an increase in chondrocytes, an increase in chondrocytes was examined in treated sites to which both ITS and SAG were added (ITS+ 0.01 uM SAG, ITS+ 0.1 uM SAG), a treated site to which ITS was added alone (ITS+ SAG−), and a treated site to which ITS and SAG were not added (ITS− SAG−).

Regarding `CNC1CCC(N(Cc2cccc(-c3ccncc3)c2)C(=O)c2sc3ccccc3c2Cl)CC1` (stereo not drawn) [SAG], the culture of chondrocytes result is, setting by setting: (Comparative Example 1: primary culture as Example 1 but DMEM medium not containing SAG, first to 5th day, FIG. 3) “chondrocytes could not be effectively cultured in the state without SAG”; (Comparative Example 2: subculture as Example 2 but DMEM medium not containing SAG, first to 13th day, FIG. 7) “chondrocytes could not be effectively cultured in the state which does not contain SAG”. Also, the “effect on proliferation of chondrocytes” value (ITS+ 0.01 uM SAG, ITS+ 0.1 uM SAG, FIG. 14) is recorded as “an obvious effect can be obtained by combining SAG”. Further, the “proliferation of cultured chondrocytes (number of cells)” value is, setting by setting: (SAG 0.01 uM to 0.5 uM added along with ITS, FIG. 13) “an increase in chondrocytes was almost equally observed”; (SAG 0.05 uM, 0.01 uM or 0.5 uM in serum-free culture medium, no ITS, FIG. 12) “an obvious difference which had been expected was not observed”.
Take `O=C1O[C@H]([C@@H](O)CO)C(O)=C1O` [ascorbic acid]: the “effect on culture of chondrocytes in a serum-free culture medium” value reads like this: (Example 1: 50 μg/mL ascorbic acid added on the 18th day of culture) “very effective”; (Example 2 (subculture): 50 μg/mL ascorbic acid added on the 18th day of culture) “very effective”.
Take `O=C(O)c1ccccc1C(=O)Nc1ccc(-c2ccccc2)cc1` [kartogenin, 2-[(biphenyl-4-yl)carbamoyl] benzoic acid]: the “effect on proliferation of chondrocytes” value (ITS+ 1 uM Kartogenin) is given as “the effect on proliferation of chondrocytes was observed”. For the setting “kartogenin added in place of SAG”, the proliferation of chondrocytes entry is listed as “effective for the proliferation of chondrocytes”.
